Here are results for eleven compounds from patent US8039481B2, “Tetrahydrofuran derivatives for use as inhibitors of matrix metalloproteinases” (Sanofi-Aventis, priority 2005, dated 2011).

Where only a bound is given, the exact number is not on record here.

What all share (assay type): biochemical
In assay [1] the target is T1, catalytic domain of human collagenase-1 (MMP-1) (Homo sapiens, UniProt P03956).
T1 construct: Determination of the Enzymatic Activity of the Catalytic Domain of Human Collagenase-1 (MMP-1); purchased Biocol, Potsdam MMP1
T1 sequence (P03956 100-269 limits assumed): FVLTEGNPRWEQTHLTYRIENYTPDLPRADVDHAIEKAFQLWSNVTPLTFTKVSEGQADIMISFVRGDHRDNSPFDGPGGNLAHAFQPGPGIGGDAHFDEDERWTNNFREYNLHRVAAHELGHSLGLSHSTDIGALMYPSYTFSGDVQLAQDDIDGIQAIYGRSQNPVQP
Briefly: Enzymatic activity of the catalytic domain of human collagenase-1 (MMP-1), fluorogenic substrate. As to the method:
Determination of the Enzymatic Activity of the Catalytic Domain of Human Collagenase-1 (MMP-1)
Activation of the proenzyme: 2 parts by volume of proenzyme are incubated with 1 part by volume of APMA solution at 37° C. for 1 hour. The APMA solution is prepared from a 10 mmol/l p-aminophenylmercuric acetate solution in 0.1 mmol/l NaOH by dilution with 3 parts by volume of tris/HCl buffer pH7.5 (see below). The pH is adjusted to between 7.0 and 7.5 by adding 1 mmol/l HCl. After activation of the enzyme, it is diluted with the tris/HCl buffer to a concentration of 2.5 μg/ml.
The enzymic activity is measured by incubating 10 μl of enzyme solution with 10 μl of a 3% strength (v/v) buffered dimethyl sulfoxide solution (reaction 1) for 15 minutes. The enzyme inhibitor activity is measured by incubating 10 μl of enzyme solution with 10 μl of a 3% strength (v/v) buffered dimethyl sulfoxide solution which contains the enzyme inhibitor (reaction 2).
The enzymic reaction both in the case of reaction 1 and in the case of reaction 2 is followed after addition of 10 μl of a 3% strength (v/v) aqueous dimethyl sulfoxide solution which contains 0.3 mmol/l of the substrate by fluorescence spectroscopy (328 nm (extinction)/393 nm (emission)), and the enzymic activity is presented as increase in extinction per minute.
The effect of the inhibitor is calculated as percentage inhibition by the following formula: % inhibition=100−[(increase in extinction/minute in reaction 2)/(increase in extinction/minute in reaction 1)×100].
The IC50, i.e. the inhibitor concentration necessary for 50% inhibition of the enzymic activity, is determined graphically by plotting the percentage inhibitions at various inhibitor concentrations.
The buffer solution contains 0.05% Brij (Sigma, Deisenhofen, Germany) and 0.1 mol/l tris/HCl, 0.1 mol/l NaCl, 0.01 mol/l CaCl2 (pH=7.5). The enzyme solution contains 2.5 μg/ml of the enzyme domain.
The substrate solution contains 0.3 mmol/l of the fluorogenic substrate (7-methoxycoumarin-4-yl)acetyl-Pro-Leu-Gly-Leu-3-(2′,4′-dinitrophenyl)-L-2,3-diaminopropionyl-Ala-Arg-NH2 (Bachem, Heidelberg, Germany).

In assay [2] the target is T2, catalytic domain of human stromelysin (MMP-3) (Homo sapiens, UniProt P08254).
T2 construct: Preparation and determination of the enzymatic activity of the catalytic domain of human stromelysin (MMP-3); made in house
T2 sequence (P08254 100-272 limits assumed): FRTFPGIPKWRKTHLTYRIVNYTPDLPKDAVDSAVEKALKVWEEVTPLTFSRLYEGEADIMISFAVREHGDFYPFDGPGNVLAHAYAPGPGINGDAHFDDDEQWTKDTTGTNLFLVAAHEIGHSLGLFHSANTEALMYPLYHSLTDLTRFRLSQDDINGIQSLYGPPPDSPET
Briefly: Enzymatic activity of the catalytic domain of human stromelysin (MMP-3), fluorogenic substrate. The procedure: (§1) Preparation and determination of the enzymatic activity of the catalytic domain of human stromelysin (MMP-3) and of neutrophil collagenase (MMP-8). The two enzymes stromelysin (MMP-3) and neutrophil collagenase (MMP-8) were prepared by the method of Ye et al. (Biochemistry; 31 (1992) pages 11 231-11 235). The enzymic activity or the effect of the enzyme inhibitor was measured by incubating 10 μl of enzyme solution with 10 μl of a 3% strength (v/v) buffered dimethyl sulfoxide solution which contained the enzyme inhibitor where appropriate, for 15 minutes. After addition of 10 μl of a 3% strength (v/v) aqueous dimethyl sulfoxide solution which contained 1 mmol/l of the substrate, the enzymic reaction was followed by fluorescence spectroscopy (328 nm (ex)/393 nm(em)).
(§2) The enzymic activity is presented as increase in extinction/minute. The IC50 values listed in Table 2 were determined as the inhibitor concentrations leading in each case to 50% inhibition of the enzyme.
(§3) The buffer solution contained 0.05% Brij (Sigma, Deisenhofen, Germany) and 0.1 mol/l Tris/HCl, 0.1 mol/l NaCl, 0.01 mol/l CaCl2 and 0.1 mol/l piperazine-N,N′-bis[2-ethanesulfonic acid] (pH=7.5).
(§4) The MMP-3 enzyme solution contained 2.3 μg/ml and the MMP-8 enzyme solution 0.6 μg/ml of one of the enzyme domains prepared by the method of Ye et al. The substrate solution contained 1 mmol/l of the fluorogenic substrate (7-methoxycoumarin-4-yl)acetyl-Pro-Leu-Gly-Leu-3-(2′,4′-dinitrophenyl)-L-2,3-diaminopropionyl-Ala-Arg-NH2 (Bachem, Heidelberg, Germany).

Assay [3] concerns the target T3, catalytic domain of neutrophil collagenase (MMP-8) (Homo sapiens, UniProt P22894).
T3 construct: catalytic domain of human stromelysin (MMP-3) and of neutrophil collagenase (MMP-8); made in house
Briefly: Enzymatic activity of the catalytic domain of neutrophil collagenase (MMP-8), fluorogenic substrate. As to the method:
as §1, §2, §3, §4

For orientation: IC50 means the concentration that gives 50% inhibition.

T3 sequence (P22894 100-262 limits assumed): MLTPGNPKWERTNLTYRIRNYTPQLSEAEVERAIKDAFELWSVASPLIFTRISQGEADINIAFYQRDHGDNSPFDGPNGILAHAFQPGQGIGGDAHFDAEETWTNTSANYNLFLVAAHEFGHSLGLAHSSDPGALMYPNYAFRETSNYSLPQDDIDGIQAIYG

`O=C(O)C1C2CCOC2CCN1S(=O)(=O)c1ccc(-c2ccc(Cl)cc2)cc1` (stereo not drawn) [Example 6, 5-(4′-chlorobiphenyl-4-sulfonyl)octahydrofuro[3,2-c]pyridine-4-carboxylic acid]: the IC50 in assay [1] was above 10000 nM; in assay [2], 3500 nM; in assay [3] it was 54 nM.
As to `O=C(NO)C1C2CCOC2CCN1S(=O)(=O)c1ccc(-c2ccc(Cl)cc2)cc1` (stereo not drawn) [Example 7, 5-(4′-chlorobiphenyl-4-sulfonyl)octahydrofuro[3,2-c]pyridine-4-(N-hydroxy)-carboxamide], the IC50 stood at 29 nM in assay [1], 29 nM in assay [2] and 2.4 nM in assay [3].
As for `O=C(NO)[C@H]1[C@H]2CCO[C@H]2CCN1S(=O)(=O)c1ccc(-c2ccc(Cl)cc2)cc1` [Example 8], the IC50 in assay [1] is 14 nM; in assay [2], 13 nM; in assay [3], 1 nM.
As for `O=C(NO)[C@@H]1[C@@H]2CCO[C@@H]2CCN1S(=O)(=O)c1ccc(-c2ccc(Cl)cc2)cc1` [Example 9], the figures for the IC50 in assay [1], in assay [2] and in assay [3] were 4100 nM, 1100 nM and 170 nM, respectively.
With `O=C(O)C1C2CCOC2CCN1S(=O)(=O)c1ccc(Oc2ccc(F)cc2)cc1` (stereo not drawn) [Example 10, 5-[4-(4-fluorophenoxy)benzenesulfonyl]octahydrofuro[3,2-c]pyridine-4-carboxylic acid], the IC50 in assay [1] was above 10000 nM; in assay [2] it was above 10000 nM; in assay [3], 410 nM.
`O=C(NO)C1C2CCOC2CCN1S(=O)(=O)c1ccc(Oc2ccc(F)cc2)cc1` (stereo not drawn) [Example 11, 5-[4-(4-fluorophenoxy)benzenesulfonyl]octahydrofuro[3,2-c]pyridine-4-(N-hydroxy)-carboxamide]: the IC50 in assay [1] was 39 nM; in assay [2], 34 nM; in assay [3], 6 nM.
Regarding `O=C(NO)[C@H]1[C@H]2CCO[C@H]2CCN1S(=O)(=O)c1ccc(Oc2ccc(F)cc2)cc1` [Example 12], the 50% inhibitory concentration (IC50) in assay [1] worked out at 10 nM; in assay [2] it was 14 nM; in assay [3] it was 2 nM.
As to `O=C(NO)[C@@H]1[C@@H]2CCO[C@@H]2CCN1S(=O)(=O)c1ccc(Oc2ccc(F)cc2)cc1` [Example 13], the half-maximal inhibitory concentration (IC50) came to 1400 nM in assay [1], 1500 nM in assay [2] and 150 nM in assay [3].
On to `O=C(NO)C1C2CCOC2CCN1S(=O)(=O)c1ccc(Oc2ccc(Cl)cc2)cc1` (stereo not drawn) [Example 18, 5-[4-(4-chlorophenoxy)benzenesulfonyl]octahydrofuro[3,2-c]pyridine-4-(N-hydroxy)-carboxamide], for which the 50% inhibitory concentration (IC50) stood at 43 nM in assay [1], 27 nM in assay [2] and 24 nM in assay [3].
Take `N#Cc1ccc(Oc2ccc(S(=O)(=O)N3CC[C@@H]4OCC[C@@H]4[C@@H]3C(=O)NO)cc2)cc1` [Example 21]: the IC50 in assay [1] worked out at 59 nM; in assay [2] it was 17 nM; in assay [3], 2 nM.
For `CS(=O)(=O)c1ccc(Oc2ccc(S(=O)(=O)N3CC[C@@H]4OCC[C@@H]4[C@@H]3C(=O)NO)cc2)cc1` [Example 23], in that order: 640 nM, 15 nM and 2 nM.
